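A five-concentration, 48-hour dose response in 96-well plates underlies each endpoint, interpolated linearly between surrounding concentrations. At the GI50, growth is halved. TGI is the concentration that stops growth completely.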
Columns and labels:
Experiment in all cases: DTP human tumour cell line panel, 48 h
[1] = system: SK-MEL-2 melanoma
[2] = system: SNB-19 CNS
[3] = system: A549 NSCLC
[4] = system: KM12 colon
[5] = system: SW-620 colon
[6] = system: NCI-H460 lung
[7] = system: SK-OV-3 ovarian
[8] = system: NCI/ADR-RES ovarian
[9] = system: MDA-MB-231 breast
[10] = system: LOX IMVI melanoma
[11] = system: NCI-H226 lung
[12] = system: SK-MEL-5 melanoma
[13] = system: SF-268 CNS
[14] = system: HL-60(TB) leukemia
[15] = system: SN12C renal
[16] = system: K-562 leukemia
[17] = system: NCI-H23 lung
[18] = system: A498 renal
[19] = system: OVCAR-4 ovarian
[20] = system: HCC-2998 colon
[21] = system: T-47D breast
[22] = system: HT29 colon
[23] = system: HCT-15 colon
[24] = system: OVCAR-5 ovarian
[25] = system: CAKI-1 renal
[26] = system: UACC-257 melanoma
[27] = system: SR leukemia
[28] = system: MDA-MB-435
[29] = system: U251 CNS
[30] = system: COLO 205 colon
[31] = system: DU-145 prostate
[32] = system: UO-31 renal
[33] = system: ACHN renal
[34] = system: SK-MEL-28 melanoma
[35] = system: NCI-H522 lung
[36] = system: EKVX NSCLC
[37] = system: HOP-62 NSCLC
[38] = system: 786-0 renal
[39] = system: M14 melanoma
[40] = system: MCF7 breast
[41] = system: HCT-116 colon
[42] = system: TK-10 renal
[43] = system: MALME-3M melanoma
[44] = system: IGROV1 ovarian
[45] = system: MOLT-4 leukemia
[46] = system: UACC-62 melanoma
[47] = system: BT-549 breast
[48] = system: RXF 393 renal
[49] = system: SF-295 CNS
[50] = system: OVCAR-3 ovarian
[51] = system: OVCAR-8 ovarian

`COc1ccc(C2=C(c3cn(C)c4ccccc34)C(=O)OC2)cc1OC` was tested, and the GI50 [1] was 4.34 µM, the TGI [1] was > 100 µM and the GI50 [2] was 4.18 µM. The TGI [2] was > 100 µM, the GI50 [3] was 2.67 µM and the TGI [3] was > 100 µM. For the same compound, the GI50 [4] was 1.45 µM, the TGI [4] was > 100 µM and the GI50 [5] was 0.587 µM. For the same compound, the TGI [5] was > 100 µM, the GI50 [6] was 2.21 µM and the TGI [6] was > 100 µM. The GI50 [7] was 5.6 µM, the TGI [7] was > 100 µM and the GI50 [8] was 0.87 µM. For the same compound, the TGI [8] was > 100 µM, the GI50 [9] was 2.42 µM and the TGI [9] was > 100 µM. The GI50 [10] was 4.54 µM, the TGI [10] was > 100 µM and the GI50 [11] was 3.26 µM. The TGI [11] was > 100 µM, the GI50 [12] was 3.74 µM and the TGI [12] was > 100 µM. The GI50 [13] was 16.8 µM, the TGI [13] was > 100 µM and the GI50 [14] was 1.42 µM. The TGI [14] was 6.48 µM, the GI50 [15] was 6.81 µM and the TGI [15] was > 100 µM. For the same compound, the GI50 [16] was 0.441 µM, the TGI [16] was > 100 µM and the GI50 [17] was 4.04 µM. The TGI [17] was > 100 µM, the GI50 [18] was 0.374 µM and the TGI [18] was 3.5 µM. The GI50 [19] was 6.77 µM, the TGI [19] was > 100 µM and the GI50 [20] was 2.86 µM. The TGI [20] was > 100 µM, the GI50 [21] was 4.07 µM and the TGI [21] was > 100 µM. For the same compound, the GI50 [22] was 0.688 µM, the TGI [22] was > 100 µM and the GI50 [23] was 0.621 µM. The TGI [23] was > 100 µM, the GI50 [24] was 5.96 µM and the TGI [24] was > 100 µM. For the same compound, the GI50 [25] was 0.747 µM, the TGI [25] was > 100 µM and the GI50 [26] was > 100 µM. The TGI [26] was > 100 µM, the GI50 [27] was 0.411 µM and the TGI [27] was > 100 µM. The GI50 [28] was 0.265 µM, the TGI [28] was 0.801 µM and the GI50 [29] was 2.64 µM. The TGI [29] was > 100 µM, the GI50 [30] was 1.5 µM and the TGI [30] was 27.9 µM. The GI50 [31] was 3.13 µM, the TGI [31] was > 100 µM and the GI50 [32] was 1.93 µM. For the same compound, the TGI [32] was > 100 µM, the GI50 [33] was 7.95 µM and the TGI [33] was > 100 µM. The GI50 [34] was 9.87 µM, the TGI [34] was > 100 µM and the GI50 [35] was 1.19 µM. The TGI [35] was > 100 µM, the GI50 [36] was 4.64 µM and the TGI [36] was > 100 µM. For the same compound, the GI50 [37] was 3 µM, the TGI [37] was > 100 µM and the GI50 [38] was 6.67 µM. The TGI [38] was > 100 µM, the GI50 [39] was 0.938 µM and the TGI [39] was > 100 µM. The GI50 [40] was 0.713 µM, the TGI [40] was > 100 µM and the GI50 [41] was 1.16 µM. For the same compound, the TGI [41] was > 100 µM, the GI50 [42] was > 100 µM and the TGI [42] was > 100 µM. The GI50 [43] was 9.32 µM, the TGI [43] was > 100 µM and the GI50 [44] was 1.72 µM. The TGI [44] was > 100 µM, the GI50 [45] was 2.8 µM and the TGI [45] was > 100 µM. The GI50 [46] was 1.28 µM, the TGI [46] was > 100 µM and the GI50 [47] was 2.79 µM. The TGI [47] was > 100 µM, the GI50 [48] was 1.92 µM and the TGI [48] was 6.11 µM. The GI50 [49] was 2.65 µM, the TGI [49] was > 100 µM and the GI50 [50] was 1.25 µM. The TGI [50] was 5.45 µM, the GI50 [51] was 4.69 µM and the TGI [51] was > 100 µM.

— PubChem BioAssay (NCI)
